US9695155B2, “Herbicidal substituted pyrimidinyloxy benzene compounds” (E. I. DU PONT DE NEMOURS AND COMPANY, priority 2013, dated 2017)

Key:
[1] = system: johnsongrass; test: Test C postemergence; format: in vivo, Sorghum halepense; conditions: Sorghum halepense, post-emergence
Source text: (§1) Seeds of plant species selected from blackgrass (Alopecurus myosuroides), Italian ryegrass (Lolium multiflorum), wheat, winter (winter wheat, Triticum aestivum), galium (catchweed bedstraw, Galium aparine), corn (Zea mays), large (Lg) crabgrass (Digitaria sanguinalis), giant foxtail (Setaria faberii), johnsongrass (Sorghum halepense), lambsquarters (Chenopodium album), morningglory (Ipomoea coccinea), yellow nutsedge (Cyperus esculentus), pigweed (Amaranthus retroflexus), ragweed (common ragweed, Ambrosia elatior), soybean (Glycine max), barnyardgrass (Echinochloa crus-galli), oilseed rape (Brassica napus), waterhemp (common waterhemp, Amaranthus rudis), kochia (Kochia scoparia), wild oat (Avena fatua), surinam grass (Brachiaria decumbens), foxtail, green (green foxtail, Setaria viridis), goosegrass (Eleusine indica), bromegrass, downy (downy bromegrass, Bromus tectorum), nightshade (eastern black nightshade, Solanum ptycanthum), cocklebur (common cocklebur, Xanthium strumarium), cupgrass, woolly (woolly cupgrass, Eriochloa villosa), bermudagrass (Cynodon dactylon), sunflower, (common oilseed sunflower, Helianthus annuus), Russian thistle (Salsola kali), and velvetleaf (Abutilon theophrasti) were planted into a blend of loam soil and sand and treated preemergence with test chemicals formulated in a non-phytotoxic solvent mixture which included a surfactant.
(§2) At the same time, plants selected from these crop and weed species and also barley, winter (winter barley, Hordeum vulgare), windgrass (Apera spica-venti), chickweed (common chickweed, Stellaria media), deadnettle (henbit deadnettle, Lamium amplexicaule), and canarygrass (littleseed canarygrass, Phalaris minor) were planted in pots containing Redi-Earth® planting medium (Scotts Company, 14111 Scottslawn Road, Marysville, Ohio 43041) comprising spaghnum peat moss, vermiculite, wetting agent and starter nutrients and treated with postemergence applications of test chemicals formulated in the same manner. Plants ranged in height from 2 to 18 cm (1- to 4-leaf stage) for postemergence treatments. Treated plants and controls were maintained in a greenhouse for 13 to 15 days, after which time all species were compared to controls and visually evaluated. Plant response ratings, summarized in Table C, are based on a scale of 0 to 100 where 0 is no effect and 100 is complete control. A dash (-) response means no test result.

[2] = system: velvetleaf; test: Test C postemergence; format: in vivo, Abutilon theophrasti; conditions: Abutilon theophrasti, post-emergence
Source text: as §1, §2

[3] = system: large (Lg) crabgrass; test: Test C postemergence; format: in vivo, Digitaria sanguinalis; conditions: Digitaria sanguinalis, post-emergence
Source text: as §1, §2

[4] = system: pigweed; test: Test A postemergence; format: in vivo, Amaranthus retroflexus
Method in brief: (§3)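 Compounds in non-phytotoxic solvent with surfactant applied as soil spray preemergence, or postemergence to plants 2-10 cm at one- to two-leaf stage, in loam/sand. After approximately 10 days in greenhouse, injury rated visually versus untreated controls, 0 (no effect) to 100 (complete control).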

[5] = system: pigweed; test: Test A preemergence; format: in vivo, Amaranthus retroflexus
Method in brief: as §3

[6] = system: wheat; test: Test A postemergence; format: in vivo, Triticum aestivum
Method in brief: as §3

[7] = system: yellow nutsedge; test: Test C postemergence; format: in vivo, Cyperus esculentus; conditions: Cyperus, post-emergence
Source text: as §1, §2

[8] = system: wheat; test: Test A preemergence; format: in vivo, Triticum aestivum
Method in brief: as §3

[9] = system: sedge, umbrella; test: Test B flooded paddy test; format: in vivo, Cyperus difformis; conditions: Flood, 250 g ai/ha, 0 to 100 scale where 0 is no effect and 100 is complete control
Method in brief: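 Plants at 2-leaf stage; pots flooded to 3 cm above soil and compound applied directly into paddy water, depth held throughout. After 13 to 15 days in greenhouse, visual rating versus controls on 0 (no effect) to 100 (complete control) scale.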

[10] = system: morningglory; test: Test A preemergence; format: in vivo, Ipomoea spp.
Method in brief: as §3

[11] = system: soybean; test: Test C postemergence; format: in vivo, Glycine max; conditions: Glycine max, post-emergence
Source text: as §1, §2

[12] = system: giant foxtail; test: Test C postemergence; format: in vivo, Setaria faberii; conditions: Setaria faberi, post-emergence
Source text: as §1, §2

[13] = system: galium; test: Test C preemergence; format: in vivo, Galium aparine; conditions: for Galium plant response rating: preemergence
Method in brief: (§4)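 Seeds were sown in loam–sand blend and sprayed preemergence, while plants at 1- to 4-leaf stage (2–18 cm) in peat-based medium received postemergence sprays; test chemicals were formulated in a non-phytotoxic solvent with surfactant. After 13–15 days in a greenhouse, injury was rated visually against controls, 0 (no effect) to 100 (complete control).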

[14] = system: Italian ryegrass; test: Test C preemergence; format: in vivo, Lolium multiflorum; conditions: for Ryegrass, Italian plant response rating: preemergence
Method in brief: as §4

[15] = 125 g ai/ha, 0 to 100 scale where 0 is no effect and 100 is complete control
[16] = 500 g ai/ha, 0 to 100 scale where 0 is no effect and 100 is complete control
[17] = 16 g ai/ha, scale 0 to 100 (0 no effect, 100 complete control)
[18] = 125 g ai/ha, scale 0 (no effect) to 100 (complete control)
[19] = Preemergence, 62 g ai/ha, scale 0 to 100, 0 no effect, 100 complete control

Which results are given for `Fc1cnc(Oc2ccccc2-n2cc(Br)cn2)nc1` [Compound 10, 2-[2-(4-bromo-1H-pyrazol-1-yl)phenoxy]-5-fluoropyrimidine]?
pest or weed control at 125 g/ha ([1]; 125 g ai/ha, postemergence, read-out: Plant response rating (0 to 100), Johnsongrass): 5%; pest or weed control at 250 g/ha ([1]; 250 g ai/ha, postemergence, read-out: Plant response rating (0 to 100), Johnsongrass): 10%; pest or weed control at 31 g/ha ([1]; Postemergence, 31 g ai/ha, scale 0 to 100 (0 no effect, 100 complete control), 13 to 15 days, read-out: Plant response rating, Johnsongrass): 5%; pest or weed control at 125 g/ha ([2]; 125 g ai/ha, postemergence, read-out: Plant response rating (0 to 100), Velvetleaf): 70%; pest or weed control at 250 g/ha ([2]; 250 g ai/ha, postemergence, read-out: Plant response rating (0 to 100), Velvetleaf): 90%; pest or weed control at 31 g/ha ([2]; Postemergence, 31 g ai/ha, scale 0 to 100 (0 no effect, 100 complete control), 13 to 15 days, read-out: Plant response rating, Velvetleaf): 50%; pest or weed control at 62 g/ha ([2]; Postemergence, 62 g ai/ha, scale 0 to 100 (0 no effect, 100 complete control), read-out: Plant response rating, Velvetleaf): 70%; pest or weed control at 125 g/ha ([3]; 125 g ai/ha, postemergence, read-out: Plant response rating (0 to 100), Crabgrass, Large): 5%; pest or weed control at 250 g/ha ([3]; 250 g ai/ha, postemergence, read-out: Plant response rating (0 to 100), Crabgrass, Large): 35%; pest or weed control at 31 g/ha ([3]; Postemergence, 31 g ai/ha, scale 0 to 100 (0 no effect, 100 complete control), 13 to 15 days, read-out: Plant response rating, Crabgrass, Large): 5%; pest or weed control at 62 g/ha ([3]; Postemergence, 62 g ai/ha, scale 0 to 100 (0 no effect, 100 complete control), read-out: Plant response rating, Crabgrass, Large): 5%; pest or weed control at 125 g/ha ([4]; Amaranthus retroflexus, post-emergence, 125 g ai/ha, 0 to 100 scale where 0 is no effect and 100 is complete control, read-out: Plant response rating, Pigweed): 100%; pest or weed control at 500 g/ha ([4]; Amaranthus retroflexus, post-emergence, 240 h, 500 g ai/ha, 0 to 100 scale, 0 no effect, 100 complete control, read-out: Plant response rating Pigweed): 100%; pest or weed control at 125 g/ha ([5]; Amaranthus retroflexus, pre-emergence, 240 h, 125 g ai/ha, 0 to 100 scale where 0 is no effect and 100 is complete control, read-out: Pigweed plant response rating): 100%; pest or weed control at 500 g/ha ([5]; Amaranthus retroflexus, pre-emergence, 240 h, 500 g ai/ha, 0 to 100 scale, 0 no effect, 100 complete control, approx. 10 days, read-out: Pigweed plant response rating): 100%; plant injury at 125 g/ha ([6]; Triticum aestivum, post-emergence, 240 h, 125 g ai/ha, 0 to 100 scale where 0 is no effect and 100 is complete control, read-out: Plant response rating, Wheat): 0%; plant injury at 500 g/ha ([6]; Triticum aestivum, post-emergence, 240 h, 500 g ai/ha, 0 to 100 scale, 0 no effect, 100 complete control, read-out: Plant response rating Wheat): 60%; pest or weed control at 125 g/ha ([7]; 125 g ai/ha, postemergence, read-out: Plant response rating (0 to 100), Nutsedge, Yellow): 5%; pest or weed control at 250 g/ha ([7]; 250 g ai/ha, postemergence, read-out: Plant response rating (0 to 100), Nutsedge, Yellow): 5%; pest or weed control at 31 g/ha ([7]; Postemergence, 31 g ai/ha, scale 0 to 100 (0 no effect, 100 complete control), 13 to 15 days, read-out: Plant response rating, Nutsedge, Yellow): 0%; pest or weed control at 62 g/ha ([7]; Postemergence, 62 g ai/ha, scale 0 to 100 (0 no effect, 100 complete control), read-out: Plant response rating, Nutsedge, Yellow): 5%; plant injury at 125 g/ha ([8]; Triticum aestivum, pre-emergence, 240 h, 125 g ai/ha, 0 to 100 scale where 0 is no effect and 100 is complete control, read-out: Wheat plant response rating): 0%; plant injury at 500 g/ha ([8]; Triticum aestivum, pre-emergence, 240 h, 500 g ai/ha, 0 to 100 scale, 0 no effect, 100 complete control, approx. 10 days, read-out: Wheat plant response rating): 20%; pest or weed control at 250 g/ha ([9]; Cyperus difformis, read-out: Plant response rating, Sedge, Umbrella): 50%; pest or weed control at 125 g/ha ([10]; Ipomoea, pre-emergence, 240 h, 125 g ai/ha, 0 to 100 scale where 0 is no effect and 100 is complete control, read-out: Morningglory plant response rating): 40%; pest or weed control at 500 g/ha ([10]; Ipomoea, pre-emergence, 240 h, 500 g ai/ha, 0 to 100 scale, 0 no effect, 100 complete control, approx. 10 days, read-out: Morningglory plant response rating): 60%; Soybean plant response rating (crop injury, 0-100 scale) at 125 g/ha ([11]; 125 g ai/ha, postemergence, read-out: Plant response rating (0 to 100), Soybean): 85%; Soybean plant response rating (crop injury, 0-100 scale) at 250 g/ha ([11]; 250 g ai/ha, postemergence): 95%; Soybean plant response rating (crop injury, 0-100 scale) at 31 g/ha ([11]; Postemergence, 31 g ai/ha, scale 0 to 100 (0 no effect, 100 complete control), 13 to 15 days): 50%; Soybean plant response rating (crop injury, 0-100 scale) at 62 g/ha ([11]; Postemergence, 62 g ai/ha, scale 0 to 100 (0 no effect, 100 complete control)): 75%; pest or weed control at 125 g/ha ([12]; 125 g ai/ha, postemergence, read-out: Plant response rating (0 to 100), Foxtail, Giant): 5%; pest or weed control at 250 g/ha ([12]; 250 g ai/ha, postemergence, read-out: Plant response rating (0 to 100), Foxtail, Giant): 5%; pest or weed control at 31 g/ha ([12]; Postemergence, 31 g ai/ha, scale 0 to 100 (0 no effect, 100 complete control), 13 to 15 days, read-out: Plant response rating, Foxtail, Giant): 0%; pest or weed control at 62 g/ha ([12]; Postemergence, 62 g ai/ha, scale 0 to 100 (0 no effect, 100 complete control), read-out: Plant response rating, Foxtail, Giant): 0%

For `CCOc1cnn(-c2ccccc2Oc2ncc(Cl)cn2)c1` [Compound 187], which “Pigweed plant response rating” value [4, 15] is on record?
The value was 70.

And the “Plant response rating, Pigweed” value [4, 16]?
The value was 100.

What about the “Pigweed plant response rating (0 to 100 scale)” value ([5]; 125 g ai/ha) of the same compound?
The value was 100.

What about the “Pigweed plant response rating” value [5, 16] of the same compound?
The value was 100.

What about the “Galium plant response rating” value [13, 17] of the same compound?
Its value is 30.

And the “Galium plant response rating” value [13, 18]?
Its value is 98.

And the “Plant response rating, Galium” value [13, 19]?
The value was 90.

And the “Wheat plant response rating” value [6, 15]?
Its value is 20.

And the “Plant response rating, Wheat” value [6, 16]?
The value was 60.

What about the “Ryegrass, Italian plant response rating” value [14, 17] of the same compound?
Its value is 0.

What about the “Ryegrass, Italian plant response rating” value [14, 18] of the same compound?
The value was 5.

What about the “Plant response rating, Ryegrass, Italian” value [14, 19] of the same compound?
Its value is 0.

And the “Wheat plant response rating (0 to 100 scale)” value ([8]; 125 g ai/ha)?
The value was 0.

And the “Wheat plant response rating” value [8, 16]?
The value was 40.

What about the “Plant response rating, Sedge, Umbrella” value [9] of the same compound?
Its value is 50.

And the “Morningglory plant response rating (0 to 100 scale)” value ([10]; 125 g ai/ha)?
The value was 0.

And the “Morningglory plant response rating” value [10, 16]?
The value was 50.
